“Also recorded” adds a separate entry of the source.
System: cultured human respiratory epithelium
Test: Permeation across cultured human respiratory epithelium (EpiAir tissue), apical-to-basolateral Papp
Conditions: p<0.05, two-tailed t-test, N=3
Description: An in vitro model of MatTek EpiAir® tissue was used for the permeability assessment of the test articles and control compounds. The EpiAir® culture consists of cells that have been cultured to form a pseudo-stratified, highly differentiated model closely resembling the epithelial tissue of the human respiratory tract. The histological cross-sections of the cultured tissue reveal a pseudo-stratified mucociliary phenotype.
EpiAir® tissues plated in 12 well plates were pre-equilibrated for the assay by culturing them for 24 hours at 37° C. with 5% CO2 in a humidified incubator. On the day of the assay, the cultures were washed two times with Dulbeccos' Phosphate Buffered Saline (DPBS buffer) at pH 7.4, and then dosed with donor and receiver buffer applied to the apical and basolateral surfaces of the culture, respectively. The receiver buffer consisted of DPBS, at pH 7.4. The donor solution consisted of DPBS buffer containing the appropriate compounds as specified in Table 1. All treatments were performed in triplicate. The receiver buffer was sampled at 15, 30, 60, and 120 minutes, and the donor buffer was sampled at 120 minutes.
The Lucifer Yellow concentration in the receiver samples was measured using a FluoStar fluorescence plate reader (BMG Laboratories, Durham, N.C.).
The apparent permeability coefficient, Papp, was calculated as follows: […]
where: dCr/dt is the slope of the cumulative concentration in the receiver compartment versus time; Vr is the volume of the receiver compartment; A is the surface area of epithelium available for permeation; and Co is the dosing solution concentration.

CNCC/C=C/c1cccnc1 [Compound B, N-methyl-(4-pyridin-3-yl-but-3-enyl)-amine]
Permeation (Papp) in the presence of the MAO inhibitor Pargyline compared to alone: significantly lower Papp value in the absence, than in the presence; also recorded: significant increased
